From US20260137698A1, “CYCLIN-DEPENDENT KINASE 7 INHIBITORS” (JOINT STOCK COMPANY «BIOCAD», priority 2022, published 2026)
Where two headings read alike, the source gives them in different places.

Key:
[1] = test system: NCl-H82 (small cell lung cancer); experiment: Antiproliferative assay on NCl-H82 cells (AlamarBlue, 120 h); format: cell-based; settings: mean value from several measurements
[2] = Microsomal stability in human liver microsomes (HLM); format: in vitro ADME; settings: 1 μM test compound
Procedure: The procedure for investigating the metabolism of selected compounds was carried out in microsomal fractions of the liver (of rats, mice, humans) in the presence of a phase I metabolism cofactor (NADPH).
The rate of enzymatic decomposition of the compound in liver microsomes in in vitro analysis was determined by keeping a reaction mixture comprising 0.5 mg/ml of pooled human, rat or mouse liver microsomes, 1 μM test compound, 1.5 mM […] (Carbosynth, UK, cat. no. NN108711101) and 1.5 mM magnesium chloride in 0.1 M sodium phosphate buffer (pH 7.4) in a solid-state thermostat at 37° C. (XenoTech, USA, order no. H2610, cat. no. R1000, cat. no. M1000). Incubation was carried out in three replicates.
To determine the stability of compounds under sample preparation conditions, an aliquot in two replicates with the test compound and a microsomal fraction devoid of the NADPH cofactor, which was incubated for 40 minutes at 37° C.
Reactions were stopped at 0, 10, 20, 30 and 40 min time points by way of adding an ice mixture of acetonitrile:methanol (3:1) comprising an internal standard.
Samples were then centrifuged to remove the precipitated protein, supernatants were analyzed using HPLC-MS/MS to determine in vitro clearance (CLint) of the compounds. The Agilent 6410 mass spectrometer (Agilent, USA) combined with the Agilent 1260 Infinity II HPLC liquid chromatograph (Agilent, USA) and a cooling autosampler controlled by MassHunter software (Agilent, USA) was used as an HPLC-MS/MS system. Chromatographic analysis was performed on a C18 reversed-phase HPLC column (Agilent, Waters or equivalent) in a gradient elution mode in a system of mobile phases: 0.1% formic acid in water/0.1% formic acid in acetonitrile, flow rate: 0.5 ml/min, column T=35° C. Mass spectrometric detection was performed with electrospray ionization in multiple reaction monitoring mode. Precursor ions, fragment ions and collision energies for each substance were selected experimentally.
A graph of dependence of the logarithmic ratio between substance's peak area and internal standard's peak area vs time was built. The dependent coefficient of this line corresponded to the elimination rate constant k, on the basis of which the in vitro clearance CLint was calculated:
Based on resulting in vitro clearance CLint values, the microsomal stability of the selected compounds for humans, rats and mice was concluded.

[3] = test system: MDA-MB-468 (triple negative breast cancer); experiment: Antiproliferative assay on MDA-MB-468 cells (AlamarBlue, 96 h); format: cell-based; settings: Homo sapiens, mean value from several measurements
[4] = target: CDK2/Cyclin A (Homo sapiens, UniProt P24941); experiment: Inhibition of CDK2/Cyclin A kinase activity (ADP-Glo); format: biochemical
Method in brief: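 Kinase preincubated with compound (11 points, 4-fold steps from 50 μM) for 10 minutes at 25° C. in kinase buffer A with DTT, then reacted 40-60 minutes at 25° C. with ATP and CDKtide, Histone H1 or PDKtide substrate. ADP formation read by ADP-Glo luminescence; IC50 from four-parameter fit.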

[5] = mean of multiple measurement series, ATP 50 μM, read-out: CDK2/Cyclin A IC50
[6] = mean value from several measurements, read-out: IC50 CDK2/Cyclin A

Row | SMILES | IC50 [1] [nM] | In vitro clearance CLint (HLM) [2] | IC50 [3] [nM] | IC50 [4, 5] [nM] | IC50 [4, 6] [nM]
1 | CN1CCCc2c(-c3nc(N[C@H]4CCCNC4)ncc3C(F)(F)F)c[nH]c2C1=O [CDK7_953, 7-methyl-3-(2-{[(3S)-piperidin-3-yl]amino}-5-(trifluoromethyl)py-rimidin-4-yl)-1H,4H,5H,6H,7H, 8H-pyrrolo[2,3-c]azepin-8-one] | < 10 | A (Clint < 20 μl/(min · mg of protein)) | < 10 | 5830 | > 200
2 | Cn1cc(N2CCCc3c(-c4nc(N[C@H]5CCCNC5)ncc4C(F)(F)F)c[nH]c3C2=O)cn1 [CDK7_955, 7-(1-methyl-1H-pyrazol-4-yl)-3-(2-{[(3S)-piperidin-3-yl]amino}-5-(trifluoromethyl)py-rimidin-4-yl)-1H,4H,5H,6H,7H, 8H-pyrrolo[2,3-c]azepin-8-one] | > 1000 | A (Clint < 20 μl/(min · mg of protein)) | 100 to 1000 |  | > 200
3 | Cn1cc(-n2ccc3c(-c4nc(N[C@H]5CCCNC5)ncc4C(F)(F)F)c[nH]c3c2=O)cn1 [CDK7_959, 6-(1-methyl-1H-pyrazol-4-yl)-3-(2-{[(3S)-piperidin-3-yl]amino}-5-(trifluoromethyl)py-rimidin-4-yl)-1H,6H,7H-pyrrolo[2,3-c]pyridin-7-one] | < 10 | A (Clint < 20 μl/(min · mg of protein)) | < 10 | 5260 | > 200
4 | O=c1c2[nH]cc(-c3nc(N[C@H]4CCCNC4)ncc3C(F)(F)F)c2ccn1Cc1ccccc1 [CDK7_961, 6-benzyl-3-(2-{[(3S)-piperidin-3-yl]amino}-5-(trifluoromethyl)py-rimidin-4-yl)-1H,6H,7H-pyrrolo[2,3-c]pyridin-7-one] | < 10 | A (Clint < 20 μl/(min · mg of protein)) | < 10 | 3700 | > 200
5 | Cn1cc(N2CCCc3c(-c4nc(N[C@H]5CCC(C)(C)NC5)ncc4C(F)(F)F)c[nH]c3C2=O)cn1 [CDK7_1122, 3-(2-{[(3S)-6,6-dimethylpiperidin-3-yl]amino}-5-(trifluoromethyl)py-rimidin-4-yl)-7-(1-methyl-1H-pyrazol-4-yl)-1H,4H,5H,6H,7H, 8H-pyrrolo[2,3-c]azepin-8-one] |  | A (Clint < 20 μl/(min · mg of protein)) | 100 to 1000 |  | 
6 | Cn1cc(-n2ccc3c(-c4nc(N[C@H]5CCC(C)(C)NC5)ncc4C(F)(F)F)c[nH]c3c2=O)cn1 [CDK7_1123, 3-(2-{[(3S)-6,6-dimethylpiperidin-3-yl]amino}-5-(trifluoromethyl)py-rimidin-4-yl)-6-(1-methyl-1H-pyrazol-4-yl)-1H,6H,7H-pyrrolo[2,3-c]pyridin-7-one] | 10 to 100 | A (Clint < 20 μl/(min · mg of protein)) | < 10 | 35200 | > 200
7 | O=C1c2[nH]cc(-c3nc(NC4CCCNC4)ncc3C(F)(F)F)c2CCCN1c1nccs1 (centres unmarked) [CDK7_1172] | 10 to 100 | B (50 μl/(min · mg of protein) > Clint > 20 μl/(min · mg of protein)) | 10 to 100 |  | > 200
8 | O=C1c2[nH]cc(-c3nc(N[C@H]4CCCNC4)ncc3C(F)(F)F)c2CCCN1c1ccccn1 [CDK7_1176, 3-(2-{[(3S)-piperidin-3-yl]amino}-5-(trifluoromethyl)py-rimidin-4-yl)-7-(pyridin-2-yl)-1H,4H,5H,6H,7H, 8H-pyrrolo[2,3-c]azepin-8-one] |  | A (Clint < 20 μl/(min · mg of protein)) | 100 to 1000 |  | 
9 | CN1CCCc2c(-c3nc(N[C@H]4CCC(C)(C)NC4)ncc3C(F)(F)F)c[nH]c2C1=O [CDK7_1187, 3-(2-{[(3S)-6,6-dimethylpiperidin-3-yl]amino}-5-(trifluoromethyl)py-rimidin-4-yl)-7-methyl-1H,4H,5H,6H,7H, 8H-pyrrolo[2,3-c]azepin-8-one] | < 10 | B (50 μl/(min · mg of protein) > Clint > 20 μl/(min · mg of protein)) | < 10 | 15700 | > 200
10 | O=C1c2[nH]cc(-c3nc(NC4CCCNC4)ncc3C(F)(F)F)c2CCCN1C1CC1 (centres unmarked) [CDK7_1188] | < 10 | A (Clint < 20 μl/(min · mg of protein)) | < 10 |  | > 200
11 | CC1(C)CC[C@H](Nc2ncc(C(F)(F)F)c(-c3c[nH]c4c3CCCN(C3CC3)C4=O)n2)CN1 [CDK7_1225, 7-cyclopropyl-3-(2-{[(3S)-6,6-dimethylpiperidin-3-yl]amino}-5-(trifluoromethyl)py-rimidin-4-yl)-1H,4H,5H,6H,7H, 8H-pyrrolo[2,3-c]azepin-8-one] | 10 to 100 | A (Clint < 20 μl/(min · mg of protein)) | 10 to 100 | 13900 | > 200
12 | CC1(C)CC[C@H](Nc2ncc(C(F)(F)F)c(-c3c[nH]c4c3CCCN(CC3CC3)C4=O)n2)CN1 [CDK7_1227, 7-(cyclopropylmeth-yl)-3-(2-{[(3S)-6,6-dimethylpiperidin-3-yl]amino}-5-(trifluoromethyl)py-rimidin-4-yl)-1H,4H,5H,6H,7H, 8H-pyrrolo[2,3-c]azepin-8-one] | 10 to 100 |  | 10 to 100 |  | > 200
13 | CC(C)N1CCCc2c(-c3nc(N[C@H]4CCC(C)(C)NC4)ncc3C(F)(F)F)c[nH]c2C1=O [CDK7_1229, 3-(2-{[(3S)-6,6-dimethylpiperidin-3-yl]amino}-5-(trifluoromethyl)py-rimidin-4-yl)-7-(propan-2-yl)-1H,4H,5H,6H,7H, 8H-pyrrolo[2,3-c]azepin-8-one] | 10 to 100 | B (50 μl/(min · mg of protein) > Clint > 20 μl/(min · mg of protein)) | 10 to 100 | 22900 | > 200
14 | CC1CCc2c(-c3nc(N[C@H]4CCCNC4)ncc3C(F)(F)F)c[nH]c2C(=O)N1C (stereo partly drawn) [CDK7_1254, 6,7-dimethyl-3-(2-{[(3S)-piperidin-3-yl]amino}-5-(trifluoromethyl)py-rimidin-4-yl)-1H,4H,5H,6H,7H, 8H-pyrrolo[2,3-c]azepin-8-one] | 10 to 100 | A (Clint < 20 μl/(min · mg of protein)) | 10 to 100 |  | > 200
15 | CCN1CCCc2c(-c3nc(N[C@H]4CCC(C)(C)NC4)ncc3C(F)(F)F)c[nH]c2C1=O [CDK7_1259, 3-(2-{[(3S)-6,6-dimethylpiperidin-3-yl]amino}-5-(trifluoromethyl)py-rimidin-4-yl)-7-ethyl-1H,4H,5H,6H,7H, 8H-pyrrolo[2,3-c]azepin-8-one] | 10 to 100 |  | 10 to 100 |  | > 200
16 | O=C1c2[nH]cc(-c3nc(N[C@H]4CCC5(CC5)NC4)ncc3C(F)(F)F)c2CCCN1C1CC1 [CDK7_1276, 3-(2-{[(6S)-4-azaspiro[2.5]octan-6-yl]amino}-5-(trifluoromethyl)py-rimidin-4-yl)-7-cyclopropyl-1H,4H,5H,6H,7H, 8H-pyrrolo[2,3-c]azepin-8-one] | < 10 | B (50 μl/(min · mg of protein) > Clint > 20 μl/(min · mg of protein)) | < 10 | 6220 | > 200
17 | CC(C)N1CCCc2c(-c3nc(N[C@H]4CCC5(CC5)NC4)ncc3C(F)(F)F)c[nH]c2C1=O [CDK7_1277, 3-(2-{[(6S)-4-azaspiro[2.5]octan-6-yl]amino}-5-(trifluoromethyl)py-rimidin-4-yl)-7-(propan-2-yl)-1H,4H,5H,6H,7H, 8H-pyrrolo[2,3-c]azepin-8-one] | < 10 | B (50 μl/(min · mg of protein) > Clint > 20 μl/(min · mg of protein)) | < 10 | 14300 | > 200
